Measurements: patent US5072038A, “2,3,4,5-tetrahalogenobenzene derivatives” (Bayer Aktiengesellschaft, priority 1984, dated 1991)
In brackets after ≈: the same amount, converted by molar mass. Where a name gives a salt, the structure may show the parent alone. Read-outs that look alike come from different tables or passages of the source.

How the values were obtained:
Test in all cases: MIC, agar dilution test
Assay type in all cases: cell-based
Proteus 1017 = details: agar dilution test/isosensitest medium
Excerpt: (§1) | Agar dilution test/isosensitest medium

Klebsiella 63 = details: agar dilution test/isosensitest medium
Excerpt: as §1

Providencia 12012 = details: agar dilution test/isosensitest medium
Excerpt: as §1

Providencia 12052 = details: agar dilution test/isosensitest medium
Excerpt: as §1

E. coli 445/7 = details: Escherichia coli, agar dilution test/isosensitest medium
Excerpt: as §1

Staph. 133 = details: agar dilution test/isosensitest medium
Excerpt: as §1

Staph. FK 422 = details: agar dilution test/isosensitest medium
Excerpt: as §1

Klebsiella 6179 = details: agar dilution test/isosensitest medium
Excerpt: as §1

Staph. 1756 = details: agar dilution test/isosensitest medium
Excerpt: as §1

E. coli T 7 = details: Escherichia coli, T7
Excerpt: as §1

E. coli Neumann = details: Escherichia coli, agar dilution test/isosensitest medium
Excerpt: as §1

Pseudom. Ellsworth = details: agar dilution test/isosensitest medium
Excerpt: as §1

[1] = E. coli 445/7 (first MIC table)
[2] = E. coli T 7, agar dilution test/isosensitest medium, read-out: MIC
[3] = 445/7, E. coli 455/7 (second MIC table)

Compound | MIC (Proteus 1017) | MIC (Klebsiella 63) | MIC (Providencia 12012) | MIC (Providencia 12052) | MIC (E. coli 445/7; [1]) | MIC (Staph. 133) | MIC (Staph. FK 422) | MIC (Klebsiella 6179) | MIC (Staph. 1756) | MIC (E. coli T 7; [2]) | MIC (E. coli Neumann) | MIC (Pseudom. Ellsworth) | MIC (E. coli T 7) | MIC (E. coli 445/7; [3])
O=C(O)c1cn(C2CC2)c2c(F)c(N3CCNCC3)c(Cl)cc2c1=O [Example 1, 6-chloro-1-cyclopropyl-8-fluoro-1,4-dihydro-4-oxo-7-(1-piperazinyl)-3-quinolinecarboxylic acid] | ≤ 0.015 µg/mL | ≤ 0.015 µg/mL | ≤ 0.015 µg/mL | 8 µg/mL (≈ 21.9 µM) | 4 µg/mL (≈ 10.9 µM) | 0.25 µg/mL (≈ 0.683 µM) | 0.25 µg/mL (≈ 0.683 µM) | 0.03 µg/mL (≈ 0.082 µM) | 0.25 µg/mL (≈ 0.683 µM) | ≤ 0.015 µg/mL | ≤ 0.015 µg/mL | 0.06 µg/mL (≈ 0.164 µM) | – | –
CC1CN(c2c(Cl)cc3c(=O)c(C(=O)O)cn(C4CC4)c3c2F)CCN1 (stereo not drawn) [Example 2] | – | 0.03 µg/mL (≈ 0.079 µM) | 0.03 µg/mL (≈ 0.079 µM) | 16 µg/mL (≈ 42.1 µM) | 8 µg/mL (≈ 21.1 µM) | 0.25 µg/mL (≈ 0.658 µM) | 0.25 µg/mL (≈ 0.658 µM) | 0.03 µg/mL (≈ 0.079 µM) | 0.5 µg/mL (≈ 1.32 µM) | ≤ 0.015 µg/mL | ≤ 0.015 µg/mL | – | – | –
CCC1CN(c2c(Cl)cc3c(=O)c(C(=O)O)cn(C4CC4)c3c2F)CCN1 (stereo not drawn) [Example 3] | – | 0.03 µg/mL (≈ 0.0762 µM) | – | 16 µg/mL (≈ 40.6 µM) | 8 µg/mL (≈ 20.3 µM) | 0.25 µg/mL (≈ 0.635 µM) | 0.25 µg/mL (≈ 0.635 µM) | ≤ 0.015 µg/mL | 0.25 µg/mL (≈ 0.635 µM) | ≤ 0.015 µg/mL | ≤ 0.015 µg/mL | – | – | –
CC1CN(c2c(Cl)cc3c(=O)c(C(=O)O)cn(C4CC4)c3c2F)CC(C)N1 (stereo not drawn) [Example 5] | – | 0.03 µg/mL (≈ 0.0762 µM) | – | 32 µg/mL (≈ 81.3 µM) | 8 µg/mL (≈ 20.3 µM) | 0.5 µg/mL (≈ 1.27 µM) | 0.25 µg/mL (≈ 0.635 µM) | 0.03 µg/mL (≈ 0.0762 µM) | 0.5 µg/mL (≈ 1.27 µM) | ≤ 0.015 µg/mL | ≤ 0.015 µg/mL | – | – | –
CN1CCN(c2c(Cl)cc3c(=O)c(C(=O)O)cn(C4CC4)c3c2F)CC1 [Example 6] | 0.06 µg/mL (≈ 0.158 µM) | 0.015 µg/mL (≈ 0.0395 µM) | 0.03 µg/mL (≈ 0.079 µM) | 4 µg/mL (≈ 10.5 µM) | 4 µg/mL (≈ 10.5 µM) | 0.25 µg/mL (≈ 0.658 µM) | 0.025 µg/mL (≈ 0.0658 µM) | 0.015 µg/mL (≈ 0.0395 µM) | 0.5 µg/mL (≈ 1.32 µM) | ≤ 0.015 µg/mL | ≤ 0.015 µg/mL | – | – | –
O=C(O)c1cn(C2CC2)c2c(F)c(N3CCN(CCO)CC3)c(Cl)cc2c1=O [Example 7] | 0.125 µg/mL (≈ 0.305 µM) | 0.06 µg/mL (≈ 0.146 µM) | – | 16 µg/mL (≈ 39 µM) | 16 µg/mL (≈ 39 µM) | 0.25 µg/mL (≈ 0.61 µM) | 0.5 µg/mL (≈ 1.22 µM) | 0.06 µg/mL (≈ 0.146 µM) | 0.5 µg/mL (≈ 1.22 µM) | ≤ 0.015 µg/mL | ≤ 0.015 µg/mL | – | – | –
O=C(O)c1cn(C2CC2)c2c(F)c(N3CCNC(C4CCCCC4)C3)c(Cl)cc2c1=O (stereo not drawn) [Example 8] | – | – | – | – | – | 0.06 µg/mL (≈ 0.134 µM) | 0.06 µg/mL (≈ 0.134 µM) | – | 0.06 µg/mL (≈ 0.134 µM) | ≤ 0.015 µg/mL | – | – | – | –
CCN1CCN(c2c(Cl)cc3c(=O)c(C(=O)O)cn(C4CC4)c3c2F)CC1 [Example 10, 6-chloro-1-cyclopropyl-7-(4-ethyl-1-piperazinyl)-8-fluoro-1,4-dihydro-4-oxo-3-quinolinecarboxylic acid] | – | 0.125 µg/mL (≈ 0.317 µM) | – | – | 16 µg/mL (≈ 40.6 µM) | – | – | 0.06 µg/mL (≈ 0.152 µM) | – | – | ≤ 0.015 µg/mL | – | 0.025 µg/mL (≈ 0.0635 µM) | –
CC(=O)CCN1CCN(c2c(Cl)cc3c(=O)c(C(=O)O)cn(C4CC4)c3c2F)CC1 [Example 12, 6-chloro-1-cyclopropyl-8-fluoro-1,4-dihydro-4-oxo-7-[4-(3-oxobutyl)-1-piperazinyl]-3-quinolinecarboxylic acid] | 0.03 µg/mL (≈ 0.0688 µM) | ≤ 0.015 µg/mL | ≤ 0.015 µg/mL | 16 µg/mL (≈ 36.7 µM) | – | 0.25 µg/mL (≈ 0.574 µM) | 0.25 µg/mL (≈ 0.574 µM) | 0.06 µg/mL (≈ 0.138 µM) | 0.25 µg/mL (≈ 0.574 µM) | ≤ 0.015 µg/mL | ≤ 0.015 µg/mL | 0.125 µg/mL (≈ 0.287 µM) | – | 8 µg/mL (≈ 18.4 µM)
CC(=O)CN1CCN(c2c(Cl)cc3c(=O)c(C(=O)O)cn(C4CC4)c3c2F)CC1.Cl [Example 13, 6-chloro-1-cyclopropyl-8-fluoro-1,4-dihydro-4-oxo-7-[4-(2-oxopropyl)-1-piperazinyl]-3-quinolinecarboxylic acid hydrochloride] | ≤ 0.015 µg/mL | ≤ 0.015 µg/mL | ≤ 0.015 µg/mL | 16 µg/mL | – | 0.25 µg/mL | 0.25 µg/mL | 0.06 µg/mL | 0.25 µg/mL | ≤ 0.015 µg/mL | ≤ 0.015 µg/mL | 0.125 µg/mL | – | 8 µg/mL
O=C(CN1CCN(c2c(Cl)cc3c(=O)c(C(=O)O)cn(C4CC4)c3c2F)CC1)c1ccccc1 [Example 14, 6-chloro-1-cyclopropyl-8-fluoro-1,4-dihydro-4-oxo-7-[4-(2-oxo-2-phenylethyl)-1-piperazinyl]-3-quinolinecarboxylic acid] | 0.125 µg/mL (≈ 0.258 µM) | 0.06 µg/mL (≈ 0.124 µM) | 0.06 µg/mL (≈ 0.124 µM) | 16 µg/mL (≈ 33.1 µM) | – | – | – | 0.25 µg/mL (≈ 0.517 µM) | – | ≤ 0.015 µg/mL | ≤ 0.015 µg/mL | – | – | 2 µg/mL (≈ 4.13 µM)
CC1CN(c2c(Cl)cc3c(=O)c(C(=O)O)cn(C4CC4)c3c2F)CC(C)O1 (stereo not drawn) [Example 17, 6-chloro-1-cyclopropyl-8-fluoro-1,4-dihydro-7-(2,6-dimethyl-4-morpholinyl)-4-oxo-3-quinolinecarboxylic acid] | – | – | – | – | – | – | ≤ 0.015 µg/mL | – | ≤ 0.015 µg/mL | – | – | – | – | –
CN1CCN(c2c(F)cc3c(=O)c(C(=O)O)cn(C4CC4)c3c2Cl)CC1 [Example 19, 8-chloro-1-cyclopropyl-6-fluoro-1,4-dihydro-7-(4-methyl-1-piperazinyl)-4-oxo-3-quinolinecarboxylic acid] | 0.03 µg/mL (≈ 0.079 µM) | 0.03 µg/mL (≈ 0.079 µM) | 0.03 µg/mL (≈ 0.079 µM) | 4 µg/mL (≈ 10.5 µM) | – | 0.06 µg/mL (≈ 0.158 µM) | 0.06 µg/mL (≈ 0.158 µM) | 0.03 µg/mL (≈ 0.079 µM) | 0.06 µg/mL (≈ 0.158 µM) | ≤ 0.015 µg/mL | ≤ 0.015 µg/mL | 0.125 µg/mL (≈ 0.329 µM) | – | 1 µg/mL (≈ 2.63 µM)
CC1CN(c2c(F)cc3c(=O)c(C(=O)O)cn(C4CC4)c3c2Cl)CCN1 (stereo not drawn) [Example 20, 8-chloro-1-cyclopropyl-6-fluoro-1,4-dihydro-7-(3-methyl-1-piperazinyl)-4-oxo-3-quinolinecarboxylic acid] | ≤ 0.015 µg/mL | ≤ 0.015 µg/mL | 0.03 µg/mL (≈ 0.079 µM) | 4 µg/mL (≈ 10.5 µM) | – | 0.06 µg/mL (≈ 0.158 µM) | 0.06 µg/mL (≈ 0.158 µM) | 0.03 µg/mL (≈ 0.079 µM) | 0.06 µg/mL (≈ 0.158 µM) | ≤ 0.015 µg/mL | ≤ 0.015 µg/mL | 0.25 µg/mL (≈ 0.658 µM) | – | 1 µg/mL (≈ 2.63 µM)
O=C(O)c1cn(C2CC2)c2c(Cl)c(N3CCNCC3)c(F)cc2c1=O [Example 21, hydrochloride] | 0.03 µg/mL | 0.06 µg/mL | 0.06 µg/mL | 1 µg/mL | – | 0.06 µg/mL | 0.125 µg/mL | 0.03 µg/mL | 0.125 µg/mL | ≤ 0.015 µg/mL | ≤ 0.015 µg/mL | – | – | 1 µg/mL
CC1CN(c2c(Cl)cc3c(=O)c(C(=O)O)cn(C4CC4)c3c2Cl)CCN1 (stereo not drawn) [Example 22, 6,8-dichloro-1-cyclopropyl-1,4-dihydro-7-(3-methyl-1-piperazinyl)-4-oxo-3-quinolinecarboxylic acid] | 0.06 µg/mL (≈ 0.151 µM) | 0.03 µg/mL (≈ 0.0757 µM) | 0.06 µg/mL (≈ 0.151 µM) | 2 µg/mL (≈ 5.05 µM) | – | 0.125 µg/mL (≈ 0.315 µM) | 0.125 µg/mL (≈ 0.315 µM) | 0.06 µg/mL (≈ 0.151 µM) | 0.125 µg/mL (≈ 0.315 µM) | ≤ 0.015 µg/mL | ≤ 0.015 µg/mL | – | – | 2 µg/mL (≈ 5.05 µM)
CCn1cc(C(=O)O)c(=O)c2cc(F)c(N3CCNCC3)cc21 [Norfloxacin, 1-ethyl-6-fluoro-1,4-dihydro-4-oxo-7-(1-piperazinyl)-3-quinolinecarboxylicacid, reference compound] | 0.03 µg/mL (≈ 0.0939 µM) | 0.125 µg/mL (≈ 0.391 µM) | 0.03 µg/mL (≈ 0.0939 µM) | 64 µg/mL (≈ 200 µM) | – | 0.5 µg/mL (≈ 1.57 µM) | 0.5 µg/mL (≈ 1.57 µM) | 0.25 µg/mL (≈ 0.783 µM) | 1 µg/mL (≈ 3.13 µM) | 0.03 µg/mL (≈ 0.0939 µM) | 0.06 µg/mL (≈ 0.188 µM) | 0.125 µg/mL (≈ 0.391 µM) | – | 16 µg/mL (≈ 50.1 µM)
